Laboratory results: patent US11752103B2, “Tramadol hydrochloride solution” (Athena Bioscience, LLC, priority 2019, dated 2023)
Where a name gives a salt, the structure may show the parent alone.

Key:
[1] = Physicochemical data of tramadol hydrochloride
Procedure: Therefore, the Ex. 2 solution was evaluated for further studies.

[2] = tested on: μ-opioid receptors; details: times more potent than tramadol; cited from earlier work
[3] = animal models; times more potent than tramadol; cited from earlier work

Compound | pH of tramadol hydrochloride [1] | pKa [1] | solubility ([1]; pH of about 4.5) | potency in μ-opioid binding relative to tramadol [2] | potency in producing analgesia relative to tramadol [3]
COc1cccc(C2(O)CCCCC2CN(C)C)c1 (mixture of isomers) [tramadol hydrochloride, (±) cis-2-[(dimethylamino)methyl]-1-(3-methoxyphenyl)cyclohexan-1-ol, hydrochloride] | about 5.3 | 9.8 | freely soluble |  | 
CN(C)C[C@@H]1CCCC[C@@]1(O)c1cccc(O)c1 (relative stereo) [ODMT, 3-[cis-2-[(dimethylamino)methyl]-1-hydroxycyclohexyl]-phenol] |  |  |  | 200 times | up to 6 times
